Target: human TLR7 (Homo sapiens (Human), UniProt Q9NYK1)
Test: Agonistic activity of compounds on HEK-Blue hTLR7 cells (QUANTI-Blue reporter, OD620)
Type: cell-based
Conditions: for Emax (OD620): OD620 at maximum activation effect
Procedure: • 1. HEK-Blue hTLR7 cells (Invivogen) were cultured in DMEM medium (Hyclone) containing 10% FBS heat-inactivated fetal bovine serum (Corning). On the day of detection, the cell state was observed under a microscope, the cells were collected and resuspended, and the cell concentration was adjusted after counting, 50 μL per well, the total amount of cells was 2×10^4, and the cells were inoculated in a 96-well plate. • 2. After the cells adhered to the wall overnight, 50 μL of the test compound at different concentrations was added into the well plate, so that the final concentrations were 100 μM, 33.3 μM, 11.11 μM, 3.70 μM, 1.23 μM, 0.41 μM, 0.14 μM, 0.05 μM, 0 μM, and the final concentration of DMSO was 1%. The compound was incubated with the cells in a 37° C., 5% CO2 incubator for 20 h. • 3. After the incubation, observation under microscope was performed to determine the maximum signal well, the states of the cells with the highest and lowest concentrations of the compound, and whether the compound will crystalize at high concentration. 10 μL of cell culture supermatant was taken and transferred to a new 96-well transparent plate, 90 μL of QUANTI-Blue (Invivogen) detection reagent was added to each well, and incubated at 37° C. for 3 h, and OD620 was read with a multifunctional microplate reader (BMG LABTECH). • 4. EC50 was calculated by fitting with Graphpad Prism software log(agonist) vs. response—Variable slope, and Emax was the (D620 at which the activation effect of the test compound reached the maximum.

Chain of human TLR7 (Q9NYK1 27-1049): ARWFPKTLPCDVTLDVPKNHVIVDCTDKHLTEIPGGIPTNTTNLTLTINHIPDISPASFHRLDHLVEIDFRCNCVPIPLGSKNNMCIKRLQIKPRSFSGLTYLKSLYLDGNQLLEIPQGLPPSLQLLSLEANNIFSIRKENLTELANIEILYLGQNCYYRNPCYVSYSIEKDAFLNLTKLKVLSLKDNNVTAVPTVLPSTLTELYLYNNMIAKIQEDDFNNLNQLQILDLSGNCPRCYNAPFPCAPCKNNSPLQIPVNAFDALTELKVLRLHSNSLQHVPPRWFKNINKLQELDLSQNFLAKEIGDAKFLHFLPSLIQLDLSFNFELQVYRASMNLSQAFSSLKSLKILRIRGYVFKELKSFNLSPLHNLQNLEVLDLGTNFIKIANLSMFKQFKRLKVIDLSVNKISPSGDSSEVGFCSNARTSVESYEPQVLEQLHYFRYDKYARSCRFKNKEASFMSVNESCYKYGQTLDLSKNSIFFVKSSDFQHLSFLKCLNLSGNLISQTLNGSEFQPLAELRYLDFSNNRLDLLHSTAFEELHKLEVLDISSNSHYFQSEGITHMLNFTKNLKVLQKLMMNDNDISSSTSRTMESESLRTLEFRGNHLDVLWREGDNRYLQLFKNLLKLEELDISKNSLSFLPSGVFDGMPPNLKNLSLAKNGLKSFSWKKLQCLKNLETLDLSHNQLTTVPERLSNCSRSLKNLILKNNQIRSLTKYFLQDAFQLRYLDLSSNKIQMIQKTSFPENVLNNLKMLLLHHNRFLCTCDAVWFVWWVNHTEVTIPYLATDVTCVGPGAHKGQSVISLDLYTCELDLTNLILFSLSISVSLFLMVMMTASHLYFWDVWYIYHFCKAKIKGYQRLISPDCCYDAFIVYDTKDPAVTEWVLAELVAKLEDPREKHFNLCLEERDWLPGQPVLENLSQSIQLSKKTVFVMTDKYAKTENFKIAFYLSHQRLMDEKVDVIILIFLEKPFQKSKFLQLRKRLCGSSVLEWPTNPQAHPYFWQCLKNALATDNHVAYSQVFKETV

| activation effect on human TLR7 (in words) | Emax (OD620) | SMILES |
| --- | --- | --- |
| strong activation effect | 1.74 | COCCc1nc2c(N)nc3ccsc3c2n1CCCCN [Compound 4, 1-(4-aminobutyl)-2-(2-methoxyethyl)-1H-imidazo[4,5-d]thieno[3,2-b]pyridine-4-amine] |
| strong activation effect | 2.08 | CCCCc1nc2c(N)nc3ccsc3c2n1CC1CCNCC1 [Compound 25, 2-butyl-1-(piperidin-4-ylmethyl)-1H-imidazo[4,5-d]thieno[3,2-b]pyridine-4-amine] |
| strong activation effect | 1.78 | CCCCc1nc2c(N)nc3cc(C)sc3c2n1CC1CCOCC1 [Compound 26, 2-butyl-7-methyl-1-((tetrahydro-2H-pyran-4-yl)methyl)-1H-imidazo[4,5-d]thieno[3,2-b]pyridine-4-amine] |
| strong activation effect | 2.40 | CCCCc1nc2c(N)nc3cc(C)sc3c2n1CC1CCN(CCOCCOCCN)CC1 [Compound 15, 1-((1-(2-(2-(2-aminoethoxy)ethoxy)ethyl)piperidin-4-yl)methyl)-2-butyl-7-methyl-1H-imidazo[4,5-d]thieno[3,2-b]pyridine-4-amine] |
| strong activation effect | 1.83 | CCCCc1nc2c(N)nc3cc(C4CCOCC4)sc3c2n1CC1CCN(C)CC1 [Compound 40, 2-butyl-1-((1-methylpiperidin-4-yl)methyl)-7-(tetrahydro-2H-pyran-4-yl)-1H-imidazo[4,5-d]thieno[3,2-b]pyridine-4-amine] |
| strong activation effect | 2.23 | CCCCc1nc2c(N)nc3cc(C)sc3c2n1CC1CCN(C(=O)CCOCCOCCN)CC1 [Compound 17, 1-(4-((4-amino-2-butyl-7-methyl-1H-imidazo[4,5-d]thieno[3,2-b]pyridin-1-yl)methyl)piperidin-1-yl)-3-(2-(2-aminoethoxy)ethoxy)propan-1-one] |
| strong activation effect | 1.21 | CCCCc1nc2c(N)nc3cc(C4CCN(C)CC4)sc3c2n1CC1CCOCC1 [Compound 34, 2-butyl-7-(1-methylpiperidin-4-yl)-1-((tetrahydro-2H-pyran-4-yl)methyl)-1H-imidazo[4,5-d]thieno[3,2-b]pyridine-4-amine] |
| strong activation effect | 0.84 | CCCCc1nc2c(N)nc3cc(C4CCNCC4)sc3c2n1CC1CCN(CCOC)CC1 [Compound 41, 2-butyl-7-(hexahydropyridin-4-yl)-1-{[1-(2-methoxyethyl)hexahydropyridin-4-yl]methyl}thieno[3,2-b]imidazo[4,5-d]pyridine-4-amine] |
| strong activation effect | 0.65 | CCCCc1nc2c(N)nc3cc(C4CCN(C)CC4)sc3c2n1CC1CCN(CCOC)CC1 [Compound 42, 2-butyl-1-{[1-(2-methoxyethyl)hexahydropyridin-4-yl]methyl}-7-(1-methylhexahydropyridin-4-yl)thieno[3,2-b]imidazo[4,5-d]pyridine-4-amine] |
| strong activation effect | 1.44 | COCCc1nc2c(N)nc3ccsc3c2n1CC1CCNCC1 [Compound 55, 1-(hexahydropyridin-4-ylmethyl)-2-(2-methoxyethyl) thieno[3,2-b]imidazo[4,5-d]pyridine-4-amine] |
| strong activation effect | 0.91 | CCCCc1nc2c(N)nc3cc(C4CCN(C)CC4)sc3c2n1C [Compound 32, 2-butyl-1-methyl-7-(1-methylpiperidin-4-yl)-1H-imidazo[4,5-d]thieno[3,2-b]pyridine-4-amine] |

— US20250257071A9, “TRICYCLIC COMPOUND, METHOD FOR PREPARING SAME, AND USE THEREOF” (Sichuan Kelun-Biotech Biopharmaceutical Co., Ltd., priority 2021, published 2025)
